Here are results for 2 compounds from patent publication US11364218B2, “Method of treating or preventing mood disorders, mental disorders, and/or chronic fatigue syndrome” (priority 2016, dated 2022).

In one experiment the test system is mouse. Nature of the experiment: forced swimming test in mouse (antidepressant action). As to conditions: for Immobile time average value / non-moving time: male ICR mice; for Immobile time average value: single forced oral dose 1 h before test (methocarbamol 200 mg/kg; etizolam 0.033 mg/kg), non-moving time in last 7 of 10 min, n=10; for non-moving time: single oral dose 1 h before test (methocarbamol 200 mg/kg; etizolam 0.033 mg/kg), last 7 of 10 min, medium control 230.8 seconds. Type of experiment: in vivo. From the text: The antidepressant action of a test substance may be evaluated using a “forced swimming method” in a mouse model.
The forced swimming test in mouse models is an animal experimental method for confirming the antidepressant activity proposed by Porsalt (Arch. Int, pharmacydn. 229.327-336 (1977)).
A mouse placed into a pool indicates either an active state or a non-moving state. Decreases in the non-moving state of the mouse is used as an index to confirm the antidepressant action of a pharmaceutical composition.
The pool used for forced swimming was a glass cylindrical container 30 cm in height and 16 cm in inner diameter filled at a water depth of 20 cm at 25° c.
One hour before the test, 10 mL/kg of the above prepared methocarbamol aqueous solution was administered to the mouse only once (200 mg/kg in methocarbamol conversion).
The administration route was a forced oral administration using an installed mice oral administration sonde made by FUCHIGAMI with a syringe for injection made by TERUMO.
After one hour of forced administration, the mouse was placed in the forced swimming pool described above and left for 10 minutes.
The first three minutes after entering were considered a conditioning period, and the mouse's non-moving time in the remaining 7 minutes was measured.
“Non-motion” was defined by the mouse not moving the anterior limb and the posterior limb, and by a state in which the upper side of the neck is lifted from the water surface and floats.
The “non-moving time” was the sum of “non-motion” time.
The test was repeated 10 times for each mouse, and an average value was calculated.
An etizolam aqueous solution was used in place of a methocarbamol aqueous solution. The same test as described above (1) was performed, but with the administration amount converted to etizolam usage at 0.0333 mg/kg.
Distilled water not containing a pharmaceutical was used in place of the methocarbamol aqueous solution in the same manner as described above (1).
The average non-moving time values of the medium control group (n=10), the examples, and comparative examples (n=10) were compared with each other.

For the next experiment, the system named is depression patients. Nature of the experiment: Test for administration to depression patients. Type of experiment: in vivo, human. How it is done: Test for administration to depression patients (embodiment 1) A 500 mg bolaxin tablet (manufactured by Ying-Yuan chemical pharmaceutical co. ltd.) and 500 mg-containing (methocarbamol content 76% mass) were prepared. A subject suffering from depression for two or more years was selected. A pharmaceutical composition was administered to the patient three times a day, and the administration was continued for one week. The dose on the initial day was 3.0 to 4.5 g/day (converted to methocarbamol). After observing the patient's state, it was increased to 6.0 g/day (converted to methocarbamol). The regular drug in addition to the tested pharmaceutical composition was continuously taken, but drinking was prohibited during the test. After one week, a potential depression improvement effect before and after administration was evaluated. The evaluation investigated a significant difference in two-term judgment of two related groups. The evaluation was judged based on a declaration of whether the subjects felt an improvement in thinking, desires, and fatigue.

Setting [1] is: N=5 depression patients, bolaxin tablets three times a day for one week, 3.0 to 4.5 g/day increased to 6.0 g/day as methocarbamol.

As to `CCc1cc2c(s1)-n1c(C)nnc1CN=C2c1ccccc1Cl` [Reagent E-1, Etizolam], in the experiment on mouse, the “Immobile time average value” was 107.3 s and the non-moving time worked out at 107.3 s.
Regarding `COc1ccccc1OCC(O)COC(N)=O` (centres unmarked) [Reagent M-1, Methocarbamol], in the experiment with mouse, the “Immobile time average value” was 157.7 s and the non-moving time was 157.7 s. The “antidepressant effect compared with etizolam group (forced swimming)” value with mouse (methocarbamol 200 mg/kg oral vs etizolam 0.033 mg/kg oral) was “essentially the same effect as the etizolam administration group”. Also, in the experiment on depression patients (setting [1]), the “Effective (subjects declaring improvement in thinking, desires and fatigue)” value came out at 5 persons; the No effect is 0 persons. For the same compound, the depression treatment effect entry in the experiment on depression patients (depression patients, one week of administration) is “beneficial depression treatment effect”.
